# Reference: patent US11690824B2, “Antibacterial compounds” (THE GENERAL HOSPITAL CORPORATION, priority 2018, dated 2023)
# Like-named read-outs stand apart in the source and are kept apart here.
# Key:
# [1] = tested on: E. aerogenes ATCC 13048; experiment: MIC assay; type: cell-based, Enterobacter aerogenes; settings: Klebsiella aerogenes, ATCC13048; E. aerogenes ATCC 13048; read-out: Minimum inhibitory concentration
# Text: (§1) Bacterial strains, growth conditions, and persister isolation. Methicillin-resistant S. aureus strains, MW2 BAA-1707, ATCC 33591, and JE2, methicillin-susceptible S. aureus strains, NCTC 8325, Newman, and ATCC 29213, vancomycin-resistant S. aureus strain, VRS1, Enterococcus faecium E007, vancomycin-resistant E. faecium strains, C68,^7 WB312, and WC196, Klebsiella pneumoniae WGLW2 (BEI Resources, Manassas, Va., USA), Acinetobacter baumannii ATCC 17978, Pseudomonas aeruginosa PA14, and Enterobacter aerogenes ATCC 13048 were used to test antimicrobial activity (Table 1). S. aureus strains were grown in tryptic soy broth (TSB) (BD, Franklin Lakes, N.J., USA), and E. faecium was grown in brain-heart infusion (BHI) broth (BD, Franklin Lakes, N.J., USA) at 37° C. K. pneumoniae, A. baumannii, P. aeruginosa, and E. aerogenes were grown in Luria Bertani (LB) broth (BD, Franklin Lakes, N.J., USA) at 37° C.
# (§2) Minimal inhibitory concentration (MIC) assay. The MICS of antibiotics were determined by the standard micro-dilution method recommended by the Clinical and Laboratory Standards Institute. MIC assays were conducted in biological triplicate.
# [2] = tested on: S. aureus (MRSA) MW2; experiment: Minimal inhibitory concentration (MIC) assay, micro-dilution; type: cell-based; settings: for MIC: Staphylococcus aureus
# Outline: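 Broth microdilution per CLSI standard, run in biological triplicate. S. aureus strains were grown in tryptic soy broth and E. faecium in brain-heart infusion broth, both at 37° C.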
# [3] = tested on: MRSA MW2; experiment: SYTOX Green membrane permeability assay; type: cell-based, S. aureus
# Protocol: SYTOX Green membrane permeability assay. […] The washed cells were adjusted to OD600=0.4 with PBS. SYTOX Green (Molecular Probes, Waltham, Mass., USA) was added to 10 mL of the diluted bacterial suspension to a final concentration of 5 μM and incubated for 30 min at room temperature in the dark. 50 μL of the bacteria/SYTOX Green suspension was mixed with 50 μl of PBS containing twice the desired concentrations of compounds in black, clear-bottom, 96-well plates (Corning no. 3904). Fluorescence was measured at room temperature using a spectrophotometer (SpectraMax M2, Molecular Devices), with excitation and emission wavelengths of 485 nm and 525 nm, respectively. All experiments were conducted in biological triplicate.
# [4] = tested on: Gram-negative bacteria; experiment: MIC against Gram-negative bacteria; type: cell-based
# Text: as §1, §2
# [5] = Hepatic and renal toxicities (serum ALT, BUN) in the mouse thigh infection model; settings: 5 days
# Protocol: Deep-seated mouse thigh infection model. In vivo efficacy of nTZDpa alone or in combination with gentamicin against MRSA persisters was evaluated by a previously described neutropenic mouse thigh infection model with modifications. Six-week-old female CD-I mice (20-25 g, Charles River Laboratories, Wilmington, Mass., USA) were obtained from Charles River Laboratories (Wilmington, Mass., USA). The CD-I mice were rendered neutropenic by administering 150 mg/kg and 100 mg/kg of cyclophosphamide intraperitoneally (i.p.) at 4 days and 1 day before infection, respectively. On the day of infection, overnight culture of MRSA MVV2 was washed 3-time with sterile saline and diluted to 10^7 CFU/ml in the saline. 50 μl of the diluted culture (5×10^5 CFU per mouse) was injected to the right thigh of each mouse. nTZDpa was dissolved in Kolliphor EL (Sigma-Aldrich, St Louis, Mo., USA)/ethanol 1:1 and then diluted 1:10 in saline to a final concentration of 50 mg/kg. At 24 h post-infection, groups of mice (n=10) were treated with 30 mg/kg gentamicin subcutaneously (s.c.) every 12 h, 25 mg/kg vancomycin i.p. every 24 h, 50 mg/kg nTZPpa i.p. every 24 h, or the combination of 50 mg/kg nTZDpa i.p. every 24 h and 30 mg/kg gentamicin s.c. every 12 h for 5 days. Control mice were injected with 250 μl of 10% Kolliphor EL/ethanol in saline i.p. every 24 h for 5 days. Mice were euthanized at 96 h post-infection. Blood was collected by cardiac puncture, and the infected thighs were aseptically excised, weighed, and stored at 4° C. until homogenization. To evaluate hepatic and renal toxicities, the levels of alanine aminotransferase and blood urea nitrogen were analyzed with commercially available kits, following the manufacturer's protocol (Pointe Scientific, Canton, Mich., USA). Thighs were homogenized in PBS, serially diluted with PBS, and spot-plated on TSA plates. After incubating the TSA plates at 37° C. overnight, the number of colonies were enumerated to calculate CFU/g thigh tissue. This study and all experiments were performed in accordance with guidelines approved by the Rhode Island Hospital Institutional Animal Care and Use Committee (RIH IACUC). Statistical significance among each group was analyzed by one-way ANOVA with post-hoc Tukey test using PASW Statistics 18 (SPSS Inc. Chicago, Ill., USA).
# [6] = tested on: GUVs DOPC/DOPG (7:3); experiment: Giant unilamellar vesicles (GUVs), observation of compound effects; settings: 4 μg/ml (1× MIC)
# Protocol: Preparation of giant unilamellar vesicles (GUVs) and observation of compound effects on GUVs. GUVs were prepared by the electroformation method described previously. Dioleoyl-glycero-phosphocholine (DOPC), Dioleoyl-glycero-phosphoglycerol (DOPG) and Dioleoyl-glycero-phosphoethanolamine-N-lissamine rhodamine B sulfonyl (18:1 Liss Rhod PE) were purchased from Avanti Polar Lipids (Alabaster, Ala., USA). 4 mM of a lipid mixture consisting of DOPC/DOPG/18:1 Liss Rhod PE (7:3:0.005) was dissolved in chloroform. Indium tin oxide (ITO)-coated slides (50×75×1.1 mm, Delta Technologies, Loveland, Colo., USA) were coated with 40 μL of the lipid mixture and dried in a vacuum chamber for 2 h to remove chloroform. An electroformation chamber was made by placing a 2 mm thick Teflon spacer between the two lipid-coated ITO slides. After adding 2 mL of 100 mM sucrose into the electrofomation chamber, the chamber was sealed with binder clips, and then connected to an AC field function generator. The swelling of the lipid bilayers was facilitated by applying an electric AC-field (10 Hz). […] GUVs were detached from surfaces by reducing the AC-field from 10 Hz to 5 Hz for 20 min. The GUV suspension was diluted (1:30) in a 100 mM glucose solution. 49 μL of the diluted GUV suspension (˜100 vesicles) was added to a black, clear-bottom 384-well plate (Corning no. 3712). […]
# [7] = nTZDpa 50 mg/kg with gentamicin 30 mg/kg
structure (smiles),measurement,setting,value
O=C(O)c1c(Sc2ccccc2)c2cc(Cl)ccc2n1Cc1ccc(Cl)cc1 [nTZDpa],MIC,[1],> 64 µg/mL
same,MIC,"[2]; S. aureus (MRSA) MW2, read-out: Minimum inhibitory concentration",4 µg/mL
same,MIC,"[2]; Table 3, growing MRSA, read-out: MIC",4 µg/mL
same,MIC relative to MIC of vancomycin,[2]; fold higher,4 fold
same,concentration of maximum SYTOX Green fluorescence,[3],16 µg/mL
same,antimicrobial activity against Gram-negative bacteria,[4],not effective against Gram-negative bacteria
same,BUN,[5]; [7],not increasing ALT or BUN
same,serum ALT,[5]; [7],not increasing ALT or BUN
same,BUN,[5]; nTZDpa alone 50 mg/kg i.p.,did not increase serum levels of ALT or BUN
same,serum ALT,[5]; nTZDpa alone 50 mg/kg i.p.,did not increase serum levels of ALT or BUN
same,time to formation of lipid aggregates on the surface of GUVs,[6],10 s
same,time to rupture of GUVs,[6],60 s
